# Assay results as given in US7354936B2, “2-phenylpyran-4-one derivatives” (Almirall AG, priority 2000, dated 2008).
# Tests used:
# COX-2 = biological target: T1, COX-2 (Homo sapiens, UniProt P35354); test: COX-2 activity in human whole blood (PGE2, LPS-induced); type: cell-based; details: for IC50: LPS 24 h at 37° C., PGE2 by ELISA; for Ratio COX-1/COX-2: ratio of COX-1/COX-2 IC50 values
# T1 construct: incubated in the presence of LPS (10:g/ml) for 24 h at 37° C. in order to induce the COX-2 expression; from tissue; host or cells: human whole blood (heparinized) from healthy volunteers, LPS-stimulated for 24 h
# T1 sequence (P35354 18-604): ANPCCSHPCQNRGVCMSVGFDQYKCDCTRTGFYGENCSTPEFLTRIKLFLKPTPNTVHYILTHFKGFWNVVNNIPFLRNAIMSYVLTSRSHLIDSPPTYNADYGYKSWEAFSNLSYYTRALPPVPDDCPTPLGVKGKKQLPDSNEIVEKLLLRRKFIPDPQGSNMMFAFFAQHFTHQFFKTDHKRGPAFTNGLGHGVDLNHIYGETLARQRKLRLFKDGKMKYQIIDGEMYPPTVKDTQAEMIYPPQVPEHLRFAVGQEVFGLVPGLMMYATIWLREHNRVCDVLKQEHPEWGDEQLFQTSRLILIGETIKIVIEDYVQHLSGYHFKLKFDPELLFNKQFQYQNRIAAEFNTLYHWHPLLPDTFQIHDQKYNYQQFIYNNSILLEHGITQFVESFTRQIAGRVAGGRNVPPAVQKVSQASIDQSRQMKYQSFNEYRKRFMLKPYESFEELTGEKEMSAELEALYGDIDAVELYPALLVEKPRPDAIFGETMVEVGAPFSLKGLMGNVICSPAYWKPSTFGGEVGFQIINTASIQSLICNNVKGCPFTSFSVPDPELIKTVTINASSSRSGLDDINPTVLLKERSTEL
# Protocol: (§1) COX-1 and COX-2 Activities in Human Whole Blood
# Plasma was separated by centrifugation (10 min at 13000 rpm) and kept at −30° C. until PGE2 levels were measured using an enzyme immunoassay kit (ELISA). […] IC50 values were obtained by non-linear regression using InPlot, GraphPad software on an IBM computer.
# COX-1 = biological target: T2, COX-1 (Homo sapiens, UniProt P23219); test: COX-1 activity in human whole blood (TXB2, calcium ionophore A23187); type: cell-based; details: for IC50: 1 h at 37° C., TXB2 by ELISA; for inhibition at 100 µM: read-out: COX-1 inhibition at 100 μM, at 100 μM
# T2 construct: Fresh blood from healthy volunteers; from tissue; host or cells: human whole blood (heparinized) from healthy volunteers
# T2 sequence (P23219 24-599): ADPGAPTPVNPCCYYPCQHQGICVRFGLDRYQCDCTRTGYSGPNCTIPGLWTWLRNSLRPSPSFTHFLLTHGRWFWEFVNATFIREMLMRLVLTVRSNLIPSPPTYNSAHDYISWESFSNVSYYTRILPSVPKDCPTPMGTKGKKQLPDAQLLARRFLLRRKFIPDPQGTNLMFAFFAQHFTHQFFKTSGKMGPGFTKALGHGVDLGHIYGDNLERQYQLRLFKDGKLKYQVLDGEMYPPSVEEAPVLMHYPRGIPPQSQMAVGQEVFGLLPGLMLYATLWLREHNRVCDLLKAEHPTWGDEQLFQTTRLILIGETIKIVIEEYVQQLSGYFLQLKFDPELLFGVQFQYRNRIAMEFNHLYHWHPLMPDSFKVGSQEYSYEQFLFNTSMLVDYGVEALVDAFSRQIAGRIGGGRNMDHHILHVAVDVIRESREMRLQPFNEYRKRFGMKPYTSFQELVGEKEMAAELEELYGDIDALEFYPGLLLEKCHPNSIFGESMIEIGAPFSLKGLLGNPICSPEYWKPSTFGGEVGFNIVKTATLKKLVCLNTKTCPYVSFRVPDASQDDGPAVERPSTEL
# Protocol: as §1
# For the COX-1 activity determination, 500:1 aliquots of blood were incubated with either 5:1 vehicle (dimethylsulphoxide) or 5:1 of a test compound for 1 h at 37° C. Calcium ionophore A23187 (25:M) was added 20 min before stopping the incubation. Plasma was separated by centrifugation (10 min at 13000 rpm) and kept at −30° C. until TXB2 levels were measured using an enzyme immunoassay kit (ELISA).
# The effect of the compounds was evaluated by incubating each compound at five to six different concentrations with triplicate determinations. IC50 values were obtained by non-linear regression using InPlot, GraphPad software on an IBM computer.
SMILES,IC50 (COX-2) [nM],Ratio COX-1/COX-2 (COX-2),melting point [°C],IC50 (COX-1) [µM],inhibition at 100 µM (COX-1) [%]
"Cc1cc(=O)c(Oc2ccc(F)cc2C)c(-c2ccc(S(C)(=O)=O)cc2)o1 [Example 1, 3-(4-Fluoro-2-methylphenoxy)-2-(4-methanesulfonylphenyl)-6-methyl pyran-4-one]",180,118,146,–,–
"Cc1cc(=O)c(Oc2ccc(Cl)cc2C)c(-c2ccc(S(C)(=O)=O)cc2)o1 [Example 2, 3-(4-Chloro-2-methylphenoxy)-2-(4-methanesulfonylphenyl)-6-methyl pyran-4-one]",130,296,–,38.5,–
"Cc1ccc(Oc2c(-c3ccc(S(C)(=O)=O)cc3)oc(C)cc2=O)c(Cl)c1 [Example 3, 3-(2-Chloro-4-methylphenoxy)-2-(4-methanesulfonylphenyl)-6-methyl pyran-4-one]",240,68,–,16.3,–
"Cc1cc(=O)c(Oc2ccc(Br)cc2F)c(-c2ccc(S(C)(=O)=O)cc2)o1 [Example 6, 3-(4-Bromo-2-fluorophenoxy)-2-(4-methanesulfonylphenyl)-6-methyl pyran-4-one]",–,268,–,40.2,–
"Cc1cc(=O)c(Oc2ccc(Br)cc2Cl)c(-c2ccc(S(C)(=O)=O)cc2)o1 [Example 7, 3-(4-Bromo-2-chlorophenoxy)-2-(4-methanesulfonylphenyl)-6-methyl pyran-4-one]",210,–,–,–,–
"Cc1cc(=O)c(Oc2ccc(Br)cc2Br)c(-c2ccc(S(C)(=O)=O)cc2)o1 [Example 8, 3-(2,4-Dibromophenoxy)-2-(4-methanesulfonylphenyl)-6-methyl-pyran-4-one]",1130,51,–,57.5,–
"Cc1cc(=O)c(Oc2ccccc2C)c(-c2ccc(S(C)(=O)=O)cc2)o1 [Example 10, 2-(4-Methanesulfonylphenyl)-6-methyl-3-(2-methylphenoxy)pyran-4-one]",86,231,168,19.9,–
"Cc1cccc(Oc2c(-c3ccc(S(C)(=O)=O)cc3)oc(C)cc2=O)c1 [Example 11, 2-(4-Methanesulfonylphenyl)-6-methyl-3-(3-methylphenoxy)pyran-4-one]",300,47,162,14.2,–
"Cc1ccc(Oc2c(-c3ccc(S(C)(=O)=O)cc3)oc(C)cc2=O)c(F)c1 [Example 12, 3-(2-Fluoro-4-methylphenoxy)-2-(4-methanesulfonylphenyl)-6-methyl pyran-4-one]",–,–,171,–,–
"CCc1oc(-c2ccc(S(C)(=O)=O)cc2)c(Oc2ccc(F)cc2F)c(=O)c1C [Example 13, 3-(2,4-Difluorophenoxy)-6-ethyl-2-(4-methanesulfonylphenyl)-5-methyl pyran-4-one]",–,–,200,–,–
"Cc1oc(-c2ccc(S(C)(=O)=O)cc2)c(Oc2ccc(F)cc2F)c(=O)c1Cl [Example 14, 3-Chloro-5-(2,4-difluorophenoxy)-6-(4-methanesulfonylphenyl)-2-methyl pyran-4-one]",–,–,210,–,–
"Cc1oc(-c2ccc(S(C)(=O)=O)cc2)c(Oc2ccc(F)cc2)c(=O)c1Cl [Example 15, 3-Chloro-5-(4-fluorophenoxy)-6-(4-methanesulfonylphenyl)-2-methyl pyran-4-one]",–,–,279,–,–
"Cc1oc(-c2ccc(S(C)(=O)=O)cc2)c(Oc2ccc(Cl)cc2)c(=O)c1Cl [Example 16, 3-Chloro-5-(4-chlorophenoxy)-6-(4-methanesulfonylphenyl)-2-methyl pyran-4-one]",530,74,274,26,–
"Cc1oc(-c2ccc(S(C)(=O)=O)cc2)c(Oc2ccc(F)cc2F)c(=O)c1Br [Example 17, 3-Bromo-5-(2,4-difluorophenoxy)-6-(4-methanesulfonylphenyl)-2-methyl pyran-4-one]",780,27,–,20,–
"Cc1oc(-c2ccc(S(C)(=O)=O)cc2)c(Oc2ccc(Cl)cc2)c(=O)c1Br [Example 18, 3-Bromo-5-(4-chlorophenoxy)-6-(4-methanesulfonylphenyl)-2-methyl pyran-4-one]",820,93,251,76.7,–
"Cc1oc(-c2ccc(S(C)(=O)=O)cc2)c(Oc2ccc(F)cc2F)c(=O)c1C [Example 19, 3-(2,4-Difluorophenoxy)-5,6-dimethyl-2-(4-methanesulfonylphenyl)pyran-4-one]",82,178,192,14.6,–
"C=Cc1c(C)oc(-c2ccc(S(C)(=O)=O)cc2)c(Oc2ccc(F)cc2F)c1=O [Example 20, 3-(2,4-Difluorophenoxy)-2-(4-methanesulfonylphenyl)-6-methyl-5-vinyl pyran-4-one]",1430,22,184,31.2,–
"CCc1c(C)oc(-c2ccc(S(C)(=O)=O)cc2)c(Oc2ccc(F)cc2F)c1=O [Example 21, 3-(2,4-Difluorophenoxy)-5-ethyl-2-(4-methanesulfonylphenyl)-6-methyl pyran-4-one]",580,62,173,35.6,–
"CS(=O)(=O)c1ccc(-c2oc(CO)cc(=O)c2Oc2ccc(F)cc2F)cc1 [Example 22, 3-(2,4-Difluorophenoxy)-6-hydroxymethyl-2-(4-methanesulfonylphenyl) pyran-4-one]",190,279,205,53,–
"CS(=O)(=O)c1ccc(-c2oc(CO)cc(=O)c2Oc2ccc(F)cc2)cc1 [Example 23, 3-(4-Fluorophenoxy)-6-hydroxymethyl-2-(4-methanesulfonylphenyl)pyran-4-one]",1440,>70,206,–,2
"CS(=O)(=O)c1ccc(-c2oc(CO)cc(=O)c2Oc2ccc(Cl)cc2)cc1 [Example 24, 3-(4-Chlorophenoxy)-6-hydroxymethyl-2-(4-methanesulfonylphenyl)pyran-4-one]",600,>150,227,–,13
"CS(=O)(=O)c1ccc(-c2oc(CO)cc(=O)c2Oc2ccc(Br)cc2F)cc1 [Example 25, 3-(2-Fluoro-4-bromophenoxy)-6-hydroxymethyl-2-(4-methanesulfonylphenyl)pyran-4-one]",–,–,202 to 203,–,–
"COCc1cc(=O)c(Oc2ccc(F)cc2F)c(-c2ccc(S(C)(=O)=O)cc2)o1 [Example 26, 3-(2,4-Difluorophenoxy)-2-(4-methanesulfonylphenyl)-6-methoxymethyl pyran-4-one]",170,124,124,21.1,–
"COCc1cc(=O)c(Oc2ccc(F)cc2)c(-c2ccc(S(C)(=O)=O)cc2)o1 [Example 27, 3-(4-Fluorophenoxy)-2-(4-methanesulfonylphenyl)-6-methoxymethylpyran-4-one]",320,270,–,86.3,–
"COCc1cc(=O)c(Oc2ccc(Cl)cc2)c(-c2ccc(S(C)(=O)=O)cc2)o1 [Example 28, 3-(4-Chlorophenoxy)-2-(4-methanesulfonylphenyl)-6-methoxymethylpyran-4-one]",440,209,156,91.9,–
"CC(=O)OCc1cc(=O)c(Oc2ccc(F)cc2F)c(-c2ccc(S(C)(=O)=O)cc2)o1 [Example 29, Acetic acid [5-(2,4-difluorophenoxy)-6-(4-methanesulfonylphenyl)-4-oxo-4H-pyran-2-yl]methyl ester]",–,–,175,–,–
"CS(=O)(=O)c1ccc(-c2oc(C(=O)O)cc(=O)c2Oc2ccc(Cl)cc2)cc1 [Example 33, 5-(4-Chlorophenoxy)-6-(4-methanesulfonylphenyl)-4-oxo-4H-pyran-2-carboxylic acid]",–,–,263,–,–
"CS(=O)(=O)c1ccc(-c2oc(C(F)F)cc(=O)c2Oc2ccc(F)cc2F)cc1 [Example 34, 6-(1,1-Difluoromethyl)-3-(2,4-difluorophenoxy)-2-(4-methanesulfonylphenyl)pyran-4-one]",–,–,156,–,–
"Cc1c(C(F)F)oc(-c2ccc(S(C)(=O)=O)cc2)c(Oc2ccc(F)cc2F)c1=O [Example 38, 2-(1,1-Difluoromethyl)-5-(2,4-difluorophenoxy)-6-(4-methanesulfonylphenyl)-3-methylpyran-4-one]",–,–,187.8 to 188.6,–,–
